Data: patent US20170190671A1, “BIS(ARYL)CATECHOL DERIVATIVES AS HERBICIDES” (E I DU PONT DE NEMOURS AND COMPANY, priority 2014, published 2017)

Tests used:
Experiment in all cases: Test C postemergence
Assay type in all cases: in vivo
[1] = test system: Italian ryegrass (Lolium multiflorum); settings: Lolium multiflorum, post-emergence, 336 h, Postemergence, scale 0 to 100, read-out: Plant response rating, Ryegrass, Italian
Summary of the method: (§1)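 After preemergence treatment of seeds in loam-sand soil or foliar treatment at the 1- to 4-leaf stage of plants in peat/vermiculite medium, pots were kept 13-15 days in the greenhouse. Each was then scored visually, 0 meaning no effect and 100 complete control.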

[2] = test system: barnyardgrass (Echinochloa crus-galli); settings: Echinochloa crus-galli, post-emergence, Postemergence, scale 0 to 100, read-out: Plant response rating, Barnyardgrass
Summary of the method: as §1

[3] = test system: blackgrass (Alopecurus myosuroides); settings: Alopecurus myosuroides, post-emergence, 336 h, Postemergence, scale 0 to 100, read-out: Plant response rating, Blackgrass
Summary of the method: as §1

[4] = test system: chickweed (common chickweed, Stellaria media); settings: Stellaria media, post-emergence, Postemergence, scale 0 to 100, read-out: Plant response rating, Chickweed
Summary of the method: as §1

[5] = test system: corn (Zea mays); settings: Zea mays, post-emergence, 336 h, Postemergence, scale 0 to 100
Summary of the method: as §1

[6] = test system: giant foxtail (Setaria faberii); settings: Setaria faberi, post-emergence, 336 h, Postemergence, scale 0 to 100, read-out: Plant response rating, Foxtail, Giant
Summary of the method: as §1

[7] = test system: johnsongrass (Sorghum halepense); settings: Sorghum halepense, post-emergence, 336 h, Postemergence, scale 0 to 100, read-out: Plant response rating, Johnsongrass
Summary of the method: as §1

[8] = test system: lambsquarters (Chenopodium album); settings: Chenopodium album, post-emergence, 336 h, Postemergence, scale 0 to 100, read-out: Plant response rating, Lambsquarters
Summary of the method: as §1

[9] = test system: oilseed rape (Brassica napus); settings: Brassica napus, post-emergence, Postemergence, scale 0 to 100, read-out: Plant response rating, Oilseed Rape
Summary of the method: as §1

[10] = test system: pigweed (Amaranthus retroflexus); settings: Amaranthus retroflexus, post-emergence, 336 h, Postemergence, scale 0 to 100, read-out: Plant response rating, Pigweed
Summary of the method: as §1

[11] = test system: ragweed (common ragweed, Ambrosia elatior); settings: Ambrosia artemisiifolia, post-emergence, 336 h, Postemergence, scale 0 to 100, read-out: Plant response rating, Ragweed
Summary of the method: as §1

[12] = test system: soybean (Glycine max); settings: Glycine max, post-emergence, Postemergence, scale 0 to 100, read-out: Plant response rating, Soybean
Summary of the method: as §1

[13] = test system: waterhemp (common waterhemp, Amaranthus rudis); settings: Amaranthus tuberculatus, post-emergence, Postemergence, scale 0 to 100, read-out: Plant response rating, Waterhemp
Summary of the method: as §1

[14] = test system: wild oat (Avena fatua); settings: Avena fatua, post-emergence, Postemergence, scale 0 to 100, read-out: Plant response rating, Oat, Wild
Summary of the method: as §1

[15] = test system: yellow nutsedge (Cyperus esculentus); settings: Cyperus, post-emergence, 336 h, Postemergence, scale 0 to 100, read-out: Plant response rating, Nutsedge, Yellow
Summary of the method: as §1

## N#Cc1cccc(Oc2ncc(C(F)(F)F)cn2)c1Oc1ncc(Cl)cn1 [Compound 39, 2-[(5-chloro-2-pyrimidinyl)oxy]-3-[[5-(trifluoromethyl)-2-pyrimidinyl]oxy]-benzonitrile]
[1]; 31 g ai/ha
  pest or weed control at 31 g/ha: 0%
[1]; 62 g ai/ha
  pest or weed control at 62 g/ha: 5%
[1]; 125 g ai/ha
  pest or weed control at 125 g/ha: 10%
[2]; 16 g ai/ha
  pest or weed control at 16 g/ha: 5%
[2]; 31 g ai/ha
  pest or weed control at 31 g/ha: 15%
[2]; 62 g ai/ha
  pest or weed control at 62 g/ha: 15%
[2]; 125 g ai/ha
  pest or weed control at 125 g/ha: 25%
[3]; 16 g ai/ha
  pest or weed control at 16 g/ha: 5%
[3]; 31 g ai/ha
  pest or weed control at 31 g/ha: 10%
[3]; 62 g ai/ha
  pest or weed control at 62 g/ha: 15%
[3]; 125 g ai/ha
  pest or weed control at 125 g/ha: 30%
[4]; 16 g ai/ha
  pest or weed control at 16 g/ha: 60%
[4]; 31 g ai/ha
  pest or weed control at 31 g/ha: 60%
[4]; 62 g ai/ha
  pest or weed control at 62 g/ha: 90%
[4]; 125 g ai/ha
  pest or weed control at 125 g/ha: 90%
[5]; 16 g ai/ha
  Corn plant response rating (crop injury, 0 = no effect, 100 = complete kill) at 16 g/ha: 5%
[5]; 31 g ai/ha
  Corn plant response rating (crop injury, 0 = no effect, 100 = complete kill) at 31 g/ha: 10%
[5]; 62 g ai/ha
  Corn plant response rating (crop injury, 0 = no effect, 100 = complete kill) at 62 g/ha: 10%
[5]; 125 g ai/ha
  Corn plant response rating (crop injury, 0 = no effect, 100 = complete kill) at 125 g/ha: 20%
[6]; 16 g ai/ha
  pest or weed control at 16 g/ha: 10%
[6]; 31 g ai/ha
  pest or weed control at 31 g/ha: 10%
[6]; 62 g ai/ha
  pest or weed control at 62 g/ha: 10%
[6]; 125 g ai/ha
  pest or weed control at 125 g/ha: 20%
[7]; 16 g ai/ha
  pest or weed control at 16 g/ha: 5%
[7]; 31 g ai/ha
  pest or weed control at 31 g/ha: 15%
[7]; 62 g ai/ha
  pest or weed control at 62 g/ha: 10%
[7]; 125 g ai/ha
  pest or weed control at 125 g/ha: 10%
[8]; 16 g ai/ha
  pest or weed control at 16 g/ha: 75%
[8]; 31 g ai/ha
  pest or weed control at 31 g/ha: 70%
[8]; 62 g ai/ha
  pest or weed control at 62 g/ha: 80%
[8]; 125 g ai/ha
  pest or weed control at 125 g/ha: 85%
[9]; 31 g ai/ha
  plant injury at 31 g/ha: 5%
[9]; 62 g ai/ha
  plant injury at 62 g/ha: 40%
[9]; 125 g ai/ha
  plant injury at 125 g/ha: 40%
[10]; 31 g ai/ha
  pest or weed control at 31 g/ha: 70%
[10]; 62 g ai/ha
  pest or weed control at 62 g/ha: 90%
[10]; 125 g ai/ha
  pest or weed control at 125 g/ha: 95%
[11]; 31 g ai/ha
  pest or weed control at 31 g/ha: 65%
[11]; 62 g ai/ha
  pest or weed control at 62 g/ha: 60%
[11]; 125 g ai/ha
  pest or weed control at 125 g/ha: 85%
[12]; 31 g ai/ha
  plant injury at 31 g/ha: 60%
[12]; 62 g ai/ha
  plant injury at 62 g/ha: 95%
[12]; 125 g ai/ha
  plant injury at 125 g/ha: 70%
[13]; 31 g ai/ha
  pest or weed control at 31 g/ha: 75%
[13]; 62 g ai/ha
  pest or weed control at 62 g/ha: 85%
[13]; 125 g ai/ha
  pest or weed control at 125 g/ha: 95%
[14]; 31 g ai/ha
  pest or weed control at 31 g/ha: 5%
[14]; 62 g ai/ha
  pest or weed control at 62 g/ha: 10%
[14]; 125 g ai/ha
  pest or weed control at 125 g/ha: 15%
[15]; 31 g ai/ha
  pest or weed control at 31 g/ha: 5%
[15]; 62 g ai/ha
  pest or weed control at 62 g/ha: 5%
[15]; 125 g ai/ha
  pest or weed control at 125 g/ha: 5%
